From EP3895686A1, “NATURAL COMPOSITION FOR HAIR GROWTH STIMULATION AND HAIR LOSS PREVENTION AND TREATMENT” (FRAUNHOFER-GESELLSCHAFT zur Förderung der angewandten …, priority 2020, dated 2021) come the findings set out here.

Assay type in all cases: cell-based
Data set [1] deals with Human Follicle Dermal Papilla Cells (HFDPC). The data set is described as follows: Assessment of cell morphology by phase contrast microscopy. As to conditions: for cell adherence and proliferation (summary of morphology): diosgenin concentration-dependent. The method, then:
(§1) First, Human Follicle Dermal Papilla Cells (HFDPC) cells were thawed and seeded into collagen-coated cell culture flasks (T25). Then the medium was changed every 48 h. After 4 days the cells were trypsinized and seeded in T75 cell culture flask. In preparation for the final experiment, the cells were trypsinized and then counted with a cell counter. The cell concentration was then adjusted in a defined amount of medium followed by seeding of the cells in 96-well plates for the subsequent cell impedance measurements (5000 cells per well) or in 24-well plates (20000 cells per well). Subsequently, the cells were cultivated for 7 days in pure culture medium with regular medium changes after 2-3 days. After 7 days, the medium with the additives listed in Table 1 was added (designated as day 0), followed by a 3-week cultivation of the cells. The medium (and addition of fresh active substances) was changed every 2-3 days. […] The following examinations were carried out after 7, 14 and 21 days.
Cell morphology was assessed through microscopic examination of the cells with an inverted microscope (phase contrast microscopy) at 10x and 20x primary magnification. The morphology of the cells provides information on the adherence behaviour of the cells,possible cell activation and cell stress. This examination was carried out on a 24-well scale.

Data set [2] has the same test system. The data set is described as follows: Cell count after trypsination. As to conditions: for cell number compared to untreated cells: depending on concentration and time; for influence on the cell count (conclusion): over 3 weeks. The method, then: as §1
This investigation was performed on a 24-well scale.
To perform this investigation 5000 cells per well were seeded in the 96-wells with the addition of a maximum of 200 µl medium. The cells were grown for 7 days in pure cell culture medium. The medium was changed every 2-3 days, whereby 100 µl of old medium was removed and replaced by 100 µl of new medium. After 7 days the "pure" cell culture medium was completely removed and medium with the respective additives was added. The cells were then cultivated for 3 weeks with regular replacement of the medium with the respective additives. Cell counting after trypsinizing: The exact cell count of HFDPC was determined after trypsination of the cells in the respective well and uptake of the resulting cell pellets in medium. All pellets of one sample were combined in a cell culture vessel and then counted with a cell counter.

Data set [3] has the same test system. Description: Cell impedance test on proliferation and toxicity (xCELLigence, cell index). The protocol:
The influence of various substances on the growth of HDPFC was investigated with the aid of a cell impedance device (xCELLigence® RTCA DP).
To perform this study 5000 HFDPC (Passage: 5) per well were seeded in the 16-well wells, coated on 50 µL collagen with the addition of a maximum of 200 µl medium. The cells were grown for 96 h in pure cell culture medium. After 96 h the "pure" cell culture medium was completely removed and medium with the respective additives was added. A further change with the respective additives took place after 48 h.
The CI (y-axis) is thus a measure of cell proliferation, cell morphology and cell vitality (only vital, adherent HFDPC can proliferate) overtime (x-axis).
The investigation of cell proliferation (cell index CI) or the exact determination of the cell number was carried out in order to detect a possible cytotoxic effect of the substances after addition to the cells. At the beginning of the experiment, the cells were confluently seeded in order to be able to " focus " on the induction of hair growth afterwards.
The influence of various substances on the growth of HDPFC was investigated with the aid of a cell impedance device (xCELLigence® RTCA DP). The xCELLigence® system consists of a measuring unit and software that allows to follow the cell invasion and migration in real time without the influence of additional substances for cell visualization, which could potentially have an impact on the cells. The system measures the electrical impedance via microelectrodes integrated on the bottom of the tissue culture E-plate. It enables the monitoring of changes in adhesion, spreading and proliferation of different cell types in real time, based on the measured cell-electrode impedance. […] This index is composed as follows: CI = (Rtn −Rt0)/(Fi) [formula]
Rtn and Rt0 are the frequency-dependent electrode resistances (a component of the impedance), where Rt0 is measured at time T0 (without cells) and Rtn with cells present. Fi depends on the frequency used in the measurement. Thus CI is a quantitative measure of the number of cells in an electrode-containing well, when comparing the same cell types. Under the same physiological conditions, more cells adhered to the electrodes result in a higher Rtn value, which leads to a higher value for CI. In the absence of living cells (cell culture medium only) or in a suspension of dead cells, the cell index values are close to zero. After cellular attachment to the electrode, the measurement signal correlates linearly with the cell count throughout the experiment. This investigation was performed on a 96-well scale. To perform this study 5000 HFDPC (Passage: 5) per well were seeded in the 96-well wells, coated on 50 µL collagen with the addition of a maximum of 200 µl medium. The cells were grown for 96 h in pure cell culture medium. After 96 h the "pure" cell culture medium was completely removed and medium with the respective additives was added. A further change with the respective additives took place after 48 h. The CI is thus a measure of cell proliferation, cell morphology and cell vitality (only vital, adherent HFDPC can proliferate). (FIG 11)

For data set [4] the test system is unchanged. Description: VEGF-ELISA (VEGF secretion). The method, then:
VEGF belongs to the signal molecules and stimulates the proliferation and migration of HFDPC. HFDPC generate more VEGF in the anagen phase. Thus, VEGF is an indication of the anagen phase of a hair. The detection of the VEGF protein was performed with the Human VEGF ELISA Kit from Invitrogen. The procedure was performed according to the protocol contained in the test kit with the cell supernatants previously frozen at -80°C. The removal of the cell culture supernatants was carried out on a 24-well scale. A higher value for the VEGF [pg/ml] (y-axis) means a higher value of detected VEGF. A higher VEGF value is an indication for a longer anagen phase. A longer anagen phase is an indication for more hair growth.
as §1
VEGF belongs to the signal molecules and stimulates the proliferation and migration of HFDPC. HFDPC generate more VEGF in the anagen phase. Thus VEGF is an indication of the anagen phase of a hair. […] The detection of the VEGF protein was performed with the Human VEGF ELISA Kit from invitrogen. The procedure was performed according to the protocol contained in the test kit with the cell supernatants previously frozen at -80°C. The removal of the cell culture supernatants was carried out on a 24-well scale.
VEGF was analyzed in the cell culture supernatant to check whether the active ingredients have an influence on cell function and, if so, whether they promote the release of VEGF (see figure).
Background: In an ELISA, binding on a coated surface is turned into a signal by an enzyme label.

Data set [5] shares this test system. Description: Immunofluorescent staining of vimentin. As to conditions: 2c (higher concentration).
Where [6] appears, read: one week after addition of the active ingredients.
[7] abbreviates: 250 µg/mL in medium, first 24 hours after addition.
Where [8] appears, read: 1c (lower concentration), after 3 weeks.

In the case of `CCCCCC[C@@H](O)C/C=C\CCCCCCCC(=O)O` [ricinoleic acid, 12-hydroxy-9-cis-octadecenoic acid], the “cell morphology / confluence” value in data set [1] (after 3 weeks, both concentrations) was “confluent, very dense monolayer and an elongated cell shape”; in data set [1] (setting [6]) it was “greater confluence”; in data set [1] (second week of the experiment) it was “very high confluence in the well and elongated, typical growth”. Also, in data set [1] (after 3 weeks), the “cell adherence and proliferation (summary of morphology)” value is “very beneficial for cell adherence and proliferation”. The cell count entry in data set [2] (after 1 week, compared to untreated cells) is given as “the difference was visible in both treated groups compared to untreated cells”. For the same compound, the “cell number compared to untreated cells” value in data set [2] is “significant increase in cell count”. For the same compound, the “influence on the cell count (conclusion)” value in data set [2] is reported as “positive influence on the cell count”. The cell index entry in data set [3] (100µg/mL, after 24 h and 48 h addition) was “remained constant”; in data set [3] (setting [7]), “positive influence on the cell index”; in data set [3] (250 µg/mL, after 48h of repeated addition) it was “decreases”. For the same compound, the “toxic effect on the cells” value in data set [3] (setting [7]) is recorded as “does not appear to have a toxic effect”. In addition, the VEGF release result in data set [4] (2.c (higher concentration), after 3 weeks) is “lower VEGF release”.
Consider `C[C@@H]1CC[C@@]2(OC1)O[C@H]1C[C@H]3[C@@H]4CC=C5C[C@@H](O)CC[C@]5(C)[C@H]4CC[C@]3(C)[C@H]1[C@@H]2C` [diosgenin, Diosgenin], for which the “cell spreading and attachment to the cell culture substrate (vimentin staining)” value in data set [5] was “able to clearly spread and attach to the cell culture substrate”. Further, the “cell morphology / confluence” value was “resembled untreated cells” in data set [1] (after 3 weeks, lower concentration); “greater confluence” in data set [1] (setting [6]); “very high confluence in the well and elongated, typical growth” in data set [1] (second week of the experiment). Besides, the “cell adherence and proliferation (summary of morphology)” value in data set [1] (after 3 weeks) is “very beneficial for cell adherence and proliferation”. For the same compound, in data set [2] (1c), the “number of HDFPC over time” value is on record as “remained constant after addition of Diosgenin 1c, but was increased compared to untreated cells”. Also, the “cell number over time” value in data set [2] (2c, compared to untreated and Diosgenin 1c treated cells) is given as “significant increase in cell number”. Further, the “cell number compared to untreated cells” value in data set [2] was “positive influence on the cell number”. Besides, in data set [2], the “influence on the cell count (conclusion)” value is listed as “positive influence on the cell count”. Besides, in data set [3] (measured maximum concentration of 500 µg/mL), the “toxic effect on the cells” value was “not toxic”. For the same compound, the VEGF release result is “lower VEGF release” in data set [4] (1c (lower concentration), after 1 week) and “lower VEGF release” in data set [4] (setting [8]).
As for `CCCCC/C=C\C/C=C\C/C=C\C/C=C\CCCC(=O)[O-].[Na+]` [arachidonate, Sodium Arachidonate], the “cell spreading and attachment to the cell culture substrate (vimentin staining)” value in data set [5] was “able to clearly spread and attach to the cell culture substrate”. In data set [1] (second week of the experiment), the “cell morphology / confluence” value is on record as “almost the same morphology”. The cell density entry in data set [1] (second week, higher concentration) is “higher cell density”. In addition, the cell count result in data set [2] (after 3 weeks, higher concentration, compared to untreated cells) is on record as “increase in HFDPC”; in data set [2] (entire duration of the experiment, independent of time and concentration) it was “did not negatively affect the cell count”; in data set [2] (over 2 weeks) it was “remained constant”. Also, in data set [3] (50 µg/mL in medium), the cell index result is listed as “increase the cell index”. Also, the “toxic effect on the cells” value is listed as “does not have a toxic effect” in data set [3] (50 µg/mL in medium) and “has a toxic effect” in data set [3] (100µg/mL in medium). In addition, the VEGF release entry in data set [4] (setting [8]) is on record as “lower VEGF release”.
